Test results from patent US20070243558A1, “Peptide Stabilization” (priority 2004, published 2007).
Like-named read-outs stand apart in the source and are kept apart here.

Tests used:
[1] = Storage stability of analytes in serum sample without stabilizer (background statement); type: physicochemical; conditions: serum sample
Description: In connection with said determinations and sample handling the poor stability of gastrin-17 has proven to be a problem, due to the fact that it decomposes rapidly in the sample. […] This is in contrast to pepsinogen I and II, which retain their activity at room temperature for many days, and Helicobacter pylori antibodies, which survive for at least three days under refrigerator conditions.

[2] = for gastrin-17 concentration, Avg.: average of days 0-3
[3] = Stability of the same analytes in serum samples, with and without 5% DMSO (Table 3); type: physicochemical
Description: Table 3 is a test corresponding to the test of Table 2, but where the ten samples to be tested were serum samples rather than plasma samples.

[4] = Preservation of gastrin-17 in 5% DMSO/serum or plasma solutions; type: physicochemical; conditions: 5% (vol./vol.) DMSO/serum or plasma solutions, even at room temperature
[5] = room temperature
Description: The effect of adding DMSO was tested on pepsinogen I, pepsinogen II, Helicobacter pylori antibodies and gastrin-17. The results are indicated at day 0 and day 3.

- state of the analyte in a serum sample after a day ([1]; after a day, refrigerating conditions): degraded completely
- time after which the concentration in a serum sample starts to decrease clearly ([1]; no stabilizer): three
- gastrin-17 concentration, Avg. ([2]; EDTA-plasma sample PL459S, 0% DMSO): 4.1 pmol/L
- gastrin-17 concentration ([2]; EDTA-plasma sample PL459S, 0% DMSO, day 0): 8.5 pmol/L
- gastrin-17 concentration ([2]; EDTA-plasma sample PL459S, 0% DMSO, day 1): 3.6 pmol/L
- gastrin-17 concentration ([2]; EDTA-plasma sample PL459S, 0% DMSO, day 2): 2.7 pmol/L
- gastrin-17 concentration ([2]; EDTA-plasma sample PL459S, 0% DMSO, day 3): 1.5 pmol/L
- gastrin-17 concentration, Avg. ([2]; EDTA-plasma sample PL459S, 5% DMSO): 5.6 pmol/L
- gastrin-17 concentration ([2]; EDTA-plasma sample PL459S, 5% DMSO, day 0): 6.3 pmol/L
- gastrin-17 concentration ([2]; EDTA-plasma sample PL459S, 5% DMSO, day 1): 5.4 pmol/L
- gastrin-17 concentration ([2]; EDTA-plasma sample PL459S, 5% DMSO, day 2): 5.2 pmol/L
- gastrin-17 concentration ([2]; EDTA-plasma sample PL459S, 5% DMSO, day 3): 5.4 pmol/L
- gastrin-17 concentration, Avg. ([2]; EDTA-plasma sample PL460s, 0% DMSO): 6.0 pmol/L
- gastrin-17 concentration ([2]; EDTA-plasma sample PL460s, 0% DMSO, day 0): 7.9 pmol/L
- gastrin-17 concentration ([2]; EDTA-plasma sample PL460s, 0% DMSO, day 1): 5.8 pmol/L
- gastrin-17 concentration ([2]; EDTA-plasma sample PL460s, 0% DMSO, day 2): 5.8 pmol/L
- gastrin-17 concentration ([2]; EDTA-plasma sample PL460s, 0% DMSO, day 3): 4.6 pmol/L
- gastrin-17 concentration, Avg. ([2]; EDTA-plasma sample PL460s, 5% DMSO): 6.0 pmol/L
- gastrin-17 concentration ([2]; EDTA-plasma sample PL460s, 5% DMSO, day 0): 6.3 pmol/L
- gastrin-17 concentration ([2]; EDTA-plasma sample PL460s, 5% DMSO, day 1): 5.5 pmol/L
- gastrin-17 concentration ([2]; EDTA-plasma sample PL460s, 5% DMSO, day 2): 6.1 pmol/L
- gastrin-17 concentration ([2]; EDTA-plasma sample PL460s, 5% DMSO, day 3): 6.0 pmol/L
- gastrin-17 concentration, Avg. ([2]; EDTA-plasma sample PL461s, 0% DMSO): 12.4 pmol/L
- gastrin-17 concentration ([2]; EDTA-plasma sample PL461s, 0% DMSO, day 0): 26.0 pmol/L
- gastrin-17 concentration ([2]; EDTA-plasma sample PL461s, 0% DMSO, day 1): 8.7 pmol/L
- gastrin-17 concentration ([2]; EDTA-plasma sample PL461s, 0% DMSO, day 2): 8.5 pmol/L
- gastrin-17 concentration ([2]; EDTA-plasma sample PL461s, 0% DMSO, day 3): 6.1 pmol/L
- gastrin-17 concentration, Avg. ([2]; EDTA-plasma sample PL461s, 5% DMSO): 21.8 pmol/L
- gastrin-17 concentration ([2]; EDTA-plasma sample PL461s, 5% DMSO, day 0): 24.3 pmol/L
- gastrin-17 concentration ([2]; EDTA-plasma sample PL461s, 5% DMSO, day 1): 21.6 pmol/L
- gastrin-17 concentration ([2]; EDTA-plasma sample PL461s, 5% DMSO, day 2): 19.9 pmol/L
- gastrin-17 concentration ([2]; EDTA-plasma sample PL461s, 5% DMSO, day 3): 21.2 pmol/L
- Gastrin 17 concentration ([3]; serum sample PL411s, 0% DMSO): 33.4 pmol/L
- Gastrin 17 concentration ([3]; serum sample PL411s, 5% DMSO): 32.5 pmol/L
- Gastrin 17 concentration ([3]; serum sample PL420b, 0% DMSO): 24.1 pmol/L
- Gastrin 17 concentration ([3]; serum sample PL420b, 5% DMSO): 20.1 pmol/L
- Gastrin 17 concentration ([3]; serum sample PL426s, 0% DMSO): 1.1 pmol/L
- Gastrin 17 concentration ([3]; serum sample PL426s, 5% DMSO): 1.9 pmol/L
- Gastrin 17 concentration ([3]; serum sample PL438s, 0% DMSO): 9.3 pmol/L
- Gastrin 17 concentration ([3]; serum sample PL438s, 5% DMSO): 9.8 pmol/L
- Gastrin 17 concentration ([3]; serum sample PL439s, 0% DMSO): 7.4 pmol/L
- Gastrin 17 concentration ([3]; serum sample PL439s, 5% DMSO): 8.5 pmol/L
- Gastrin 17 concentration ([3]; serum sample PL447b, 0% DMSO): 18.2 pmol/L
- Gastrin 17 concentration ([3]; serum sample PL447b, 5% DMSO): 21.7 pmol/L
- Gastrin 17 concentration ([3]; serum sample PL454s, 0% DMSO): 4.4 pmol/L
- Gastrin 17 concentration ([3]; serum sample PL454s, 5% DMSO): 5.6 pmol/L
- Gastrin 17 concentration ([3]; serum sample PL455b, 0% DMSO): 15.6 pmol/L
- Gastrin 17 concentration ([3]; serum sample PL455b, 5% DMSO): 17.6 pmol/L
- Gastrin 17 concentration ([3]; serum sample PL457b, 0% DMSO): 3.3 pmol/L
- Gastrin 17 concentration ([3]; serum sample PL457b, 5% DMSO): 6.0 pmol/L
- Gastrin 17 concentration ([3]; serum sample PL458s, 0% DMSO): 5.4 pmol/L
- Gastrin 17 concentration ([3]; serum sample PL458s, 5% DMSO): 2.2 pmol/L
- activity in samples with added 5% (vol./vol.) of DMSO ([3]; serum samples): generally retained activity
- time for which gastrin-17 was preserved [4]: at least three
- Gastrin 17 concentration ([5]; EDTA-plasma sample PL466s, 0% DMSO, day 0): 7.6 pmol/L
- Gastrin 17 concentration ([5]; EDTA-plasma sample PL466s, 0% DMSO, day 3): 1.6 pmol/L
- Gastrin 17 concentration ([5]; EDTA-plasma sample PL466s, 5% DMSO, day 0): 7.8 pmol/L
- Gastrin 17 concentration ([5]; EDTA-plasma sample PL466s, 5% DMSO, day 3): 6.9 pmol/L
- Gastrin 17 concentration ([5]; EDTA-plasma sample PL467s, 0% DMSO, day 0): 5.3 pmol/L
- Gastrin 17 concentration ([5]; EDTA-plasma sample PL467s, 0% DMSO, day 3): 2.9 pmol/L
- Gastrin 17 concentration ([5]; EDTA-plasma sample PL467s, 5% DMSO, day 0): 4.4 pmol/L
- Gastrin 17 concentration ([5]; EDTA-plasma sample PL467s, 5% DMSO, day 3): 4.5 pmol/L
- Gastrin 17 concentration ([5]; EDTA-plasma sample PL471s, 0% DMSO, day 0): 1.3 pmol/L
- Gastrin 17 concentration ([5]; EDTA-plasma sample PL471s, 0% DMSO, day 3): 0.2 pmol/L
- Gastrin 17 concentration ([5]; EDTA-plasma sample PL471s, 5% DMSO, day 0): 1.7 pmol/L
- Gastrin 17 concentration ([5]; EDTA-plasma sample PL471s, 5% DMSO, day 3): 1.4 pmol/L
- Gastrin 17 concentration ([5]; EDTA-plasma sample PL472s, 0% DMSO, day 0): 20 pmol/L
- Gastrin 17 concentration ([5]; EDTA-plasma sample PL472s, 0% DMSO, day 3): 2.9 pmol/L
- Gastrin 17 concentration ([5]; EDTA-plasma sample PL472s, 5% DMSO, day 0): 21 pmol/L
- Gastrin 17 concentration ([5]; EDTA-plasma sample PL472s, 5% DMSO, day 3): 14.3 pmol/L
- Gastrin 17 concentration ([5]; EDTA-plasma sample PL473s, 0% DMSO, day 0): 3.7 pmol/L
- Gastrin 17 concentration ([5]; EDTA-plasma sample PL473s, 0% DMSO, day 3): 0.6 pmol/L
- Gastrin 17 concentration ([5]; EDTA-plasma sample PL473s, 5% DMSO, day 0): 3.8 pmol/L
- Gastrin 17 concentration ([5]; EDTA-plasma sample PL473s, 5% DMSO, day 3): 3.4 pmol/L
Substance: gastrin-17 [Gastrin 17]
